According to patent US10533010B2, “Substituted indole Mcl-1 inhibitors” (Vanderbilt University, priority 2014, dated 2020):
Like-named read-outs stand apart in the source and are kept apart here.

Molecular target: recombinant Mcl-1 (residues 172-327) (Homo sapiens (Human), UniProt Q07820)
Test: Fluorescence polarization anisotropy competition assay (FITC-Bak or FITC-Bim BH3 peptide) with Mcl-1
Format: binding
Settings: Table 2, FITC-Bak or FITC-Bim peptide competition, Ki converted from IC50, read-out: Ki for Inhibition of Mcl-1

Chain of recombinant Mcl-1 (residues 172-327) (Q07820 172-327): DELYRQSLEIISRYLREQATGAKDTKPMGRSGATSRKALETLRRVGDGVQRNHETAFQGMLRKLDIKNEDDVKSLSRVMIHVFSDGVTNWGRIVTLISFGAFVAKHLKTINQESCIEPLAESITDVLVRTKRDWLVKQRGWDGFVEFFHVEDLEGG

Row | Compound | Ki (Ki bins given in nM) [nM] | Ki (Ki bins given in μM) [nM]
1 | Cc1cc(OCCCc2c(C(=O)NCc3cccc(C(=O)NS(=O)(=O)c4ccc([N+](=O)[O-])cc4)c3)[nH]c3c(-c4c(C)n[nH]c4C)cccc23)cc(C)c1Cl [I-27, 3-(3-(4-chloro-3,5-dimethylphenoxy)propyl)-7-(3,5-dimethyl-1H-pyrazol-4-yl)-N-(3-(((4-nitrophenyl)sulfonyl)carbamoyl)benzyl)-1H-indole-2-carboxamide] | < 50 | –
2 | Cc1cc(OCCCc2c(C(=O)Nc3ccc(C(=O)O)cc3)[nH]c3c(-c4cccnc4C)cccc23)cc(C)c1Cl [I-37, 4-(3-(3-(4-chloro-3,5-dimethylphenoxy)propyl)-7-(2-methylpyridin-3-yl)-1H-indole-2-carboxamido)benzoic acid] | < 50 | –
3 | Cc1cc(OCCCc2c(C(=O)NCCC(=O)NS(=O)(=O)c3ccccc3[N+](=O)[O-])[nH]c3ccccc23)cc(C)c1Cl [I-20, 3-(3-(4-chloro-3,5-dimethylphenoxy)propyl)-N-(3-((2-nitrophenyl)sulfonamido)-3-oxopropyl)-1H-indole-2-carboxamide] | 101 to 299 | –
4 | Cc1cc(OCCCc2c3n(c4c(-c5c(C)nn(C)c5C)c(Cl)ccc24)CCCN(c2cc(C(=O)O)cc4nnn(C)c24)C3=O)cc(C)c1Cl [I-362, 7-(8-chloro-11-(3-(4-chloro-3,5-dimethylphenoxy)propyl)-1-oxo-7-(1,3,5-trimethyl-1H-pyrazol-4-yl)-4,5-dihydro-1H-[1,4]diazepino[1,2-a]indol-2(3H)-yl)-1-methyl-1H-benzo[d][1,2,3]triazole-5-carboxylic acid] | < 50 | –
5 | Cc1cc(OCCCc2c3n(c4c(-c5c(C)nn(C)c5C)c(Cl)ccc24)C[C@@H](C)NC3=O)cc(C)c1Cl [I-109, (R)-7-chloro-10-(3-(4-chloro-3,5-dimethylphenoxy)propyl)-3-methyl-6-(1,3,5-trimethyl-1H-pyrazol-4-yl)-3,4-dihydropyrazino[1,2-a]indol-1(2H)-one] | < 50 | –
6 | Cc1cc(OCCCc2c3n(c4c(-c5c(C)nn(C)c5C)cccc24)CCCN(Cc2cc(C(=O)O)n(Cc4ccccc4)c2)C3=O)cc(C)c1Cl [I-77, 1-benzyl-4-((1-(3-(4-chloro-3,5-dimethylphenoxy)propyl)-1-oxo-7-(1,3,5-trimethyl-1H-pyrazol-4-yl)-4,5-dihydro-1H-[1,4]diazepino[1,2-a]indol-2(3H)-yl)methyl)-1H-pyrrole-2-carboxylic acid] | 51 to 100 | –
7 | Cc1cc(OCCCc2c3n(c4c(-c5c(C)nn(C)c5C)c(Cl)ccc24)CCCN(c2cc(C(=O)O)c4c(Cl)cn(C)c4c2)C3=O)cc(C)c1Cl [I-257, 3-chloro-6-(8-chloro-11-(3-(4-chloro-3,5-dimethylphenoxy)propyl)-1-oxo-7-(1,3,5-trimethyl-1H-pyrazol-4-yl)-4,5-dihydro-1H-[1,4]diazepino[1,2-a]indol-2(3H)-yl)-1-methyl-1H-indole-4-carboxylic acid] | < 50 | –
8 | Cc1cc(OCCCc2c(C(=O)NCCC(=O)NS(=O)(=O)c3ccc(Oc4ccccc4)cc3)[nH]c3ccccc23)cc(C)c1Cl [I-17, 3-(3-(4-chloro-3,5-dimethylphenoxy)propyl)-N-(3-oxo-3-((4-phenoxyphenyl)sulfonamido)propyl)-1H-indole-2-carboxamide] | 101 to 299 | –
9 | Cc1cc(OCCCc2c3n(c4c(-c5c(C)nn(C)c5C)c(Cl)ccc24)CCCN(c2cc(C(=O)O)c4cnn(C)c4c2)C3=O)cc(C)c1Cl [I-367, 6-(8-chloro-11-(3-(4-chloro-3,5-dimethylphenoxy)propyl)-1-oxo-7-(1,3,5-trimethyl-1H-pyrazol-4-yl)-4,5-dihydro-1H-[1,4]diazepino[1,2-a]indol-2(3H)-yl)-1-methyl-1H-indazole-4-carboxylic acid] | < 50 | –
10 | Cc1cc(OCCCc2c3n(c4c(-c5c(C)nn(C)c5C)c(Cl)ccc24)CCCN(c2cc(C(=O)O)cc(N(C)CCN(C)C)c2)C3=O)cc(C)c1Cl [I-211, 3-(8-chloro-11-(3-(4-chloro-3,5-dimethylphenoxy)propyl)-1-oxo-7-(1,3,5-trimethyl-1H-pyrazol-4-yl)-4,5-dihydro-1H-[1,4]diazepino[1,2-a]indol-2(3H)-yl)-5-((2-(dimethylamino)ethyl)(methyl)amino)benzoic acid] | < 50 | –
11 | Cc1cc(OCCCc2c3n(c4c(-c5c(C)nn(C)c5C)c(Cl)ccc24)C[C@@H](C)N(Cc2cccc(C(=O)O)c2)C3=O)cc(C)c1Cl [I-121, (R)-3-((7-chloro-10-(3-(4-chloro-3,5-dimethylphenoxy)propyl)-3-methyl-1-oxo-6-(1,3,5-trimethyl-1H-pyrazol-4-yl)-3,4-dihydropyrazino[1,2-a]indol-2(1H)-yl)methyl)benzoic acid] | < 50 | –
12 | Cc1cc(OCCCc2c(C(=O)NCc3cccc(C(=O)O)c3)n(C)c3c(-c4c(C)nn(C)c4C)cccc23)cc(C)c1Cl [I-33, 3-((3-(3-(4-chloro-3,5-dimethylphenoxy)propyl)-1-methyl-7-(1,3,5-trimethyl-1H-pyrazol-4-yl)-1H-indole-2-carboxamido)methyl)benzoic acid] | 51 to 100 | –
13 | Cc1cc(OCCCc2c3n(c4c(-c5c(C)nn(C)c5C)c(Cl)ccc24)CC(C)CN(Cc2ccc(C(=O)O)o2)C3=O)cc(C)c1Cl (stereo not shown) [I-132, 5-((8-chloro-1-(3-(4-chloro-3,5-dimethylphenoxy)propyl)-4-methyl-1-oxo-7-(1,3,5-trimethyl-1H-pyrazol-4-yl)-4,5-dihydro-1H-[1,4]diazepino[1,2-a]indol-2(3H)-yl)methyl)furan-2-carboxylic acid] | < 50 | –
14 | Cc1cc(OCCCc2c(C(=O)NCc3ccc(Oc4ccccc4)cc3)[nH]c3ccccc23)cc(C)c1Cl [I-45, 3-(3-(4-chloro-3,5-dimethylphenoxy)propyl)-N-(4-phenoxybenzyl)-1H-indole-2-carboxamide] | – | 10000 to 50000
15 | Cc1cc(OCCCc2c(C(=O)NCc3ccc(C(=O)N[C@@H](Cc4ccccc4)C(=O)O)o3)[nH]c3c(-c4c(C)nn(C)c4C)cccc23)cc(C)c1Cl [I-271, (5-((3-(3-(4-chloro-3,5-dimethylphenoxy)propyl)-7-(1,3,5-trimethyl-1H-pyrazol-4-yl)-1H-indole-2-carboxamido)methyl)furan-2-carbonyl)-L-phenylalanine] | < 50 | –
16 | CCOC(=O)CCNC(=O)c1[nH]c2ccccc2c1CCCOc1cc(C)c(Cl)c(C)c1 [I-10, ethyl 3-(3-(3-(4-chloro-3,5-dimethylphenoxy)propyl)-1H-indole-2-carboxamido)propanoate] | – | 10000 to 50000
17 | Cc1cc(OCCCc2c(C(=O)NCc3cccc(C(=O)NS(=O)(=O)c4cccc(C#N)c4)c3)[nH]c3c(-c4c(C)nn(C)c4C)cccc23)cc(C)c1Cl [I-30, 3-(3-(4-chloro-3,5-dimethylphenoxy)propyl)-N-(3-(((3-cyanophenyl)sulfonyl)carbamoyl)benzyl)-7-(1,3,5-trimethyl-1H-pyrazol-4-yl)-1H-indole-2-carboxamide] | < 50 | –
18 | Cc1cc(OCCCc2c(C(=O)N(C)Cc3ccc(C(=O)O)o3)n(C)c3c(-c4c(C)nn(C)c4C)cccc23)cc(C)c1Cl [I-269, 5-((3-(3-(4-chloro-3,5-dimethylphenoxy)propyl)-N,1-dimethyl-7-(1,3,5-trimethyl-1H-pyrazol-4-yl)-1H-indole-2-carboxamido)methyl)furan-2-carboxylic acid] | 101 to 299 | –
19 | Cc1cc(OCCCc2c3n(c4c(-c5c(C)nn(C)c5C)c(Cl)ccc24)CCCN(c2cc(C(=O)O)cc4c2c(Cl)cn4C)C3=O)cc(C)c1Cl [I-255, 3-chloro-4-(8-chloro-11-(3-(4-chloro-3,5-dimethylphenoxy)propyl)-1-oxo-7-(1,3,5-trimethyl-1H-pyrazol-4-yl)-4,5-dihydro-1H-[1,4]diazepino[1,2-a]indol-2(3H)-yl)-1-methyl-1H-indole-6-carboxylic acid] | < 50 | –
20 | Cc1cc(OCCCc2c(C(=O)NCC(=O)O)[nH]c3c(-c4c(C)nn(C)c4C)cccc23)cc(C)c1Cl [I-286, (3-(3-(4-chloro-3,5-dimethylphenoxy)propyl)-7-(1,3,5-trimethyl-1H-pyrazol-4-yl)-1H-indole-2-carbonyl)glycine] | < 50 | –
21 | Cc1cc(OCCCc2c3n(c4c(-c5c(C)nn(C)c5C)c(Cl)ccc24)[C@H](C)CN(Cc2ccc(C(=O)O)cn2)C3=O)cc(C)c1Cl [I-153, (R)-6-((7-chloro-10-(3-(4-chloro-3,5-dimethylphenoxy)propyl)-4-methyl-1-oxo-6-(1,3,5-trimethyl-1H-pyrazol-4-yl)-3,4-dihydropyrazino[1,2-a]indol-2(1H)-yl)methyl)nicotinic acid] | < 50 | –
22 | Cc1cc(OCCCc2c(C(=O)NCC(=O)N[C@@H](Cc3ccccc3)C(=O)O)[nH]c3c(-c4c(C)nn(C)c4C)cccc23)cc(C)c1Cl [I-291, (3-(3-(4-chloro-3,5-dimethylphenoxy)propyl)-7-(1,3,5-trimethyl-1H-pyrazol-4-yl)-1H-indole-2-carbonyl)glycyl-L-phenylalanine] | < 50 | –
23 | Cc1cc(OCCCc2c3n(c4c(-c5c(C)nn(C)c5C)c(Cl)ccc24)CCN(c2ccc(C(=O)O)c4ncccc24)C3=O)cc(C)c1Cl [I-161, 5-(7-chloro-10-(3-(4-chloro-3,5-dimethylphenoxy)propyl)-1-oxo-6-(1,3,5-trimethyl-1H-pyrazol-4-yl)-3,4-dihydropyrazino[1,2-a]indol-2(1H)-yl)quinoline-8-carboxylic acid] | < 50 | –
24 | Cc1cc(OCCCc2c3n(c4c(-c5c(C)nn(C)c5C)c(Cl)ccc24)[C@@H](C)CN(c2cccc(C(=O)O)c2)C3=O)cc(C)c1Cl [I-165, (S)-3-(7-chloro-10-(3-(4-chloro-3,5-dimethylphenoxy)propyl)-4-methyl-1-oxo-6-(1,3,5-trimethyl-1H-pyrazol-4-yl)-3,4-dihydropyrazino[1,2-a]indol-2(1H)-yl)benzoic acid] | < 50 | –
25 | Cc1cc(N2CCCn3c(c(CCCOc4cc(C)c(Cl)c(C)c4)c4ccc(Cl)c(-c5c(C)nn(C)c5C)c43)C2=O)ccc1C(=O)O [I-99, 4-(8-chloro-11-(3-(4-chloro-3,5-dimethylphenoxy)propyl)-1-oxo-7-(1,3,5-trimethyl-1H-pyrazol-4-yl)-4,5-dihydro-1H-[1,4]diazepino[1,2-a]indol-2(3H)-yl)-2-methylbenzoic acid] | < 50 | –
